Data set [1] relates to mouse skin. As to the kind of experiment: Skin fluorescence after topical application of cream formulations to nude mice, measured at 636 nm. It counts as in vivo, Female Balb/c athymic nude mice. Particulars: topical cream 0.5 mmol/10 g, fluorescence at 636 nm, in words; for induction of skin fluorescence compared with the hydrochloride salt: FIG. 6 and FIG. 7; for occurrence of maximum fluorescence compared with the hydrochloride salt: FIG. 7. The source says: (§1) Method: Female Balb/c athymic nude mice, weighing about 22 g, obtained from the Department of Laboratory Animals, The Norwegian Radium Hospital, Oslo, Norway, were used in the study. Each group consisted of three mice.
(§2) Each mouse received 0.05-0.1 g of formulation (see Example 31) topically applied at the right flank of the body, evenly distributed and covered with a dressing (Opsite Flexigrid; Smith and Nephew Medical Ltd., Hull, England).
(§3) The fiber point measuring device used consisted of a bundle of optical fibers connected to a spectrofluorimeter which produced the excitation light of 407 nm. The excitation light, which is capable of penetrating 0.1-0.5 mm into the tissue, was led through half of the fibers to the mouse skin. The resulting emission fluorescence spectrum (550-750) nm was collected and led through the remaining fibers into a photomultiplier for quantification. The fluorescence spectrum from the skin was measured at 0, 2, 4, 6, 8, 10, 12 and 24 hours after administration and plotted against time.
Different salts of 5-amino-4-oxopentanoic acid or of its benzylester were formulated in Unguentum Merck for dermal studies. All cream formulations contained 0.5 mmol substance per 10 g cream to assure the same molar concentration. Corrections were made in the case of the 2:1 salts so that the molar concentration of 5-amino-4-oxopentanoic acid or the corresponding ester corresponded to 0.5 mmol/10 g cream. Assuming that 10 g cream equals 10 ml, the approx. molar concentration is 0.5 mmol/10 ml=50 mM. Preparation of the formulations is outlined in Table 2 below.
Preparation of the Formulations is Described in Example 36. The same experimental system as in Example 32 was used, except that the skin fluorescence was measured at 636 nm rather than at 550-750 nm.
Preparation of the Formulations is Described in Example 36. The same experimental system as in Example 37 was used.

Data set [2] is described as follows: Hygroscopicity: 2 mg samples kept at ambient temperature at ambient or 100 humidity. It counts as physicochemical. As to conditions: for deliquescence on storage: ambient temperature and 100 humidity; for change of sample on storage: ambient temperature and ambient humidity for 4 days. As for the experimental part:
Samples (2 mg) of the hydrochloride, methanesulfonate, and toluenesulfonate of hexyl 5-amino-4-oxopentanoate were kept at ambient temperature and ambient humidity for 4 days.
Samples (2 mg) of the hydrochloride, methanesulfonate, and toluenesulfonate of hexyl 5-amino-4-oxopentanoate were kept at ambient temperature and 100 humidity.

Data set [3] deals with mouse skin. Nature of the data set: Skin fluorescence after topical application of cream formulations to nude mice (emission 550-750 nm). It counts as in vivo, Female Balb/c athymic nude mice. As to conditions: in words; for skin fluorescence compared to the hydrochloride salt / initial fluorescence build-up compared with the hydrochloride salt / occurrence of maximum fluorescence compared with the hydrochloride salt: topical cream 0.5 mmol/10 g; for skin fluorescence compared to the hydrochloride salt: FIG. 3 and FIG. 4; for initial fluorescence build-up compared with the hydrochloride salt / occurrence of maximum fluorescence compared with the hydrochloride salt: FIG. 2. Here is the method: Different salts of 5-amino-4-oxopentanoic acid or of its esters were formulated in Unguentum Merck for dermal studies. All cream formulations contained 0.5 mmol of substance per 10 g cream to ensure the same molar concentration (assuming that 10 g cream equals 10 ml, the approx. molar concentration is 0.5 mmol/10 ml or 50 mM). Preparation of the formulations is outlined in Table 1 below.
as §1, §2, §3

Data set [4] is described as follows: Hygroscopicity: water uptake and onset of deliquescence in closed chamber at 75-84% relative humidity. The format is physicochemical. As to conditions: 75-84% relative humidity over saturated ammonium sulfate solution, ca. 25° C.; for appearance / deliquescence during the test period / water uptake as monitored by weight: in words. As for the experimental part:
Samples of methyl 5-amino-4-oxopentanoate hydrochloride, methanesulfonate, and toluenesulfonate were weighed and kept in 30 ml plastic cups in a closed chamber at 75-84% relative humidity over saturated ammonium sulfate solution at ambient temperature (ca. 25° C.). The samples were then weighed after different intervals of time to monitor water uptake. The appearance of the samples was also checked at the same time to determine the onset of deliquescence.
Samples of 5-amino-4-oxopentanoic acid hydrochloride and toluenesulfonate were weighed and kept in 30 ml plastic cups in a closed chamber at 75-84 relative humidity over saturated ammonium sulfate solution at ambient temperature (ca. 25° C.). The samples were then weighed after different intervals of time to monitor water uptake. The appearance of the samples was also checked at the same time to determine the onset of deliquescence.
Samples of hexyl 5-amino-4-oxopentanoate hydrochloride and toluenesulfonate were weighed and kept in 30 ml plastic cups in a closed chamber at 75-84% relative humidity over saturated ammonium sulfate solution at ambient temperature (ca. 25° C.). The samples were then weighed after different intervals of time to monitor water uptake. The appearance of the samples was also checked at the same time to determine the onset of deliquescence.

For the compound `NCC(=O)CCC(=O)OCc1ccccc1.O=P(O)(O)O` [benzyl 5-amino-4-oxopentanoate phosphate, Benzyl 5-amino-4-oxopentanoate phosphate], in the data set with mouse skin [1], the “induction of skin fluorescence compared with the hydrochloride salt” value was “poorer inducers of skin fluorescence than the corresponding hydrochloride salt” and the “occurrence of maximum fluorescence compared with the hydrochloride salt” value was “occurred earlier”.

Consider “hexyl 5-amino-4-oxopentanoate toluenesulfonate”, for which, in data set [2], the deliquescence on storage entry is listed as “deliquesced after four days” and the “change of sample on storage” value was “No observable change”. In addition, the “skin fluorescence compared to the hydrochloride salt” value in the data set with mouse skin [3] (emission 550-750 nm) was “approx. the same skin fluorescence as the hydrochloride salt”. For the same compound, in data set [4], the “appearance / deliquescence during the test period” value was “did not change appearance during the test period” and the “water uptake as monitored by weight” value was “did not pick up water”.

In the case of `Cl.NCC(=O)CCC(=O)O` [5-amino-4-oxopentanoic acid hydrochloride, reference compound], in data set [4], the onset of deliquescence was 22.5 h and the “water uptake as monitored by weight” value is on record as “took up water to a considerable extent”.

For the compound “Benzyl 5-amino-4-oxopentanoate toluenesulfonate”, in the data set on mouse skin [3], the “initial fluorescence build-up compared with the hydrochloride salt” value is “occurred faster” and the “occurrence of maximum fluorescence compared with the hydrochloride salt” value is listed as “occurred faster”.

As to `CCCCCCOC(=O)CCC(=O)CN.CS(=O)(=O)O` [hexyl 5-amino-4-oxopentanoate methanesulfonate], in data set [2], the deliquescence on storage entry is listed as “deliquesced after two days” and the “change of sample on storage” value was “No observable change”. In addition, the “skin fluorescence compared to the hydrochloride salt” value in the data set on mouse skin [3] (emission 550-750 nm) is listed as “approx. the same skin fluorescence as the hydrochloride salt”. In data set [4], the “appearance / deliquescence during the test period” value was “deliquescence did not occur” and the “water uptake as monitored by weight” value is given as “took up water to some extent”.

Regarding “5-Amino-4-oxopentanoic acid toluenesulfonate”, in data set [4], the “appearance / deliquescence during the test period” value is “did not change appearance during the test period” and the “water uptake as monitored by weight” value is listed as “did not pick up water”.

Consider `CS(=O)(=O)O.NCC(=O)CCC(=O)O` [5-amino-4-oxopentanoic acid methanesulfonate], for which, in the data set with mouse skin [3] (topical cream 0.5 mmol/10 g (Unguentum Merck), excitation 407 nm, emission 550-750 nm, 0-24 h, FIG. 1), the “maximal skin fluorescence compared with the HCl salt” value is given as “somewhat higher maximal skin fluorescence than the HCl salt”.

Take “Methyl 5-amino-4-oxopentanoate toluenesulfonate”: in data set [4], the “appearance / deliquescence during the test period” value is listed as “did not change appearance during the test period” and the “water uptake as monitored by weight” value is given as “did not pick up water”.

As for `CS(=O)(=O)O.NCC(=O)CCC(=O)OCc1ccccc1` [Benzyl 5-amino-4-oxopentanoate methanesulfonate], in the data set on mouse skin [3], the “initial fluorescence build-up compared with the hydrochloride salt” value is listed as “occurred faster” and the “occurrence of maximum fluorescence compared with the hydrochloride salt” value is given as “occurred faster”.

`COC(=O)CCC(=O)CN.Cl` [methyl 5-amino-4-oxopentanoate hydrochloride, reference compound]: in data set [4], the onset of deliquescence was 22 h and the “water uptake as monitored by weight” value is “took up water to a considerable extent”.

As to `NCC(=O)CCC(=O)OCc1ccccc1.O=[N+]([O-])O` [benzyl 5-amino-4-oxopentanoate nitrate, Benzyl 5-amino-4-oxopentanoate nitrate], in the data set on mouse skin [1], the “induction of skin fluorescence compared with the hydrochloride salt” value was “more effective in inducing skin fluorescence than the hydrochloride salt”.

Take “Benzyl 5-amino-4-oxopentanoate sulfate (2:1)”: in the data set on mouse skin [1], the “induction of skin fluorescence compared with the hydrochloride salt” value is “poorer inducers of skin fluorescence than the corresponding hydrochloride salt” and the “occurrence of maximum fluorescence compared with the hydrochloride salt” value is listed as “occurred earlier”.

As to `CCCCCCOC(=O)CCC(=O)CN.Cl` [hexyl 5-amino-4-oxopentanoate hydrochloride, reference compound], in data set [2], the deliquescence on storage entry was “deliquesced after standing overnight” and the “change of sample on storage” value is listed as “No observable change”. Moreover, in data set [4], the onset of deliquescence stood at 5.0 h and the “water uptake as monitored by weight” value is listed as “did not pick up water to a considerable extent”.

Regarding `COC(=O)CCC(=O)CN.CS(=O)(=O)O` [Methyl 5-amino-4-oxopentanoate methanesulfonate], the “skin fluorescence compared to the hydrochloride salt” value with mouse skin [3] (emission 550-750 nm) is listed as “a considerable increase in skin fluorescence as compared to the hydrochloride salt”. In data set [4], the onset of deliquescence was found to be 22 h and the “water uptake as monitored by weight” value was “took up water to a considerable extent”.

Source of the values: US8692014B2, “Acid addition salts of 5-aminolevulinic acid or its derivatives” (Photocure ASA, priority 2004, dated 2014).
